Reference: the supplement of paper PMC10307832

What was measured:
Assay in all cases: relative viability (nuclei count vs DMSO), 5 days (fraction); higher = more cells survive
[1] = compound: CN(C)CC1=CC(=CC=C1)N=C(C2=CC=CC=C2)C3=C(NC4=C3C=CC(=C4)C(=O)N(C)C)O + COc1cc2c(Oc3ccc(NC(=O)C4(C(=O)Nc5ccc(F)cc5)CC4)cc3F)ccnc2cc1OCCCN1CCOCC1 [Foretinib] (partner 0.25 µM)
How it was run: (§1)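 The day after seeding in 1536-well plates, lung cancer cell lines were treated by pin tool with a single drug, or with a fixed anchor-drug dose together with five library-drug doses (not always all listed) in √10 steps. After 5 days, a combined fix-and-stain solution (final 0.05% Triton X-100, 1% formaldehyde, 1 ug/ml Hoechst) was added. Nuclei counted on 4× images gave relative viability as treated counts over vehicle counts, reported as the median of duplicate plates.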

[2] = compound: CN(C)CC1=CC(=CC=C1)N=C(C2=CC=CC=C2)C3=C(NC4=C3C=CC(=C4)C(=O)N(C)C)O + Cc1cc(Nc2cc(N3CCN(C)CC3)nc(Sc3ccc(NC(=O)C4CC4)cc3)n2)n[nH]1 [Tozasertib] (partner 0.1 µM)
How it was run: as §1

[3] = compound: CN(C)CC1=CC(=CC=C1)N=C(C2=CC=CC=C2)C3=C(NC4=C3C=CC(=C4)C(=O)N(C)C)O + NC(=O)Nc1cc(-c2cccc(F)c2)sc1C(=O)N[C@H]1CCCNC1 [AZD7762] (partner 0.2 µM)
How it was run: as §1

[4] = compound: CN(C)CC1=CC(=CC=C1)N=C(C2=CC=CC=C2)C3=C(NC4=C3C=CC(=C4)C(=O)N(C)C)O + CCNC(=O)c1noc(-c2cc(C(C)C)c(O)cc2O)c1-c1ccc(CN2CCOCC2)cc1 [Luminespib] (partner 0.01 µM)
How it was run: as §1

Cell Line	relative viability ([1]; first compound 0.08 µM)	relative viability ([1]; first compound 0.253 µM)	relative viability ([1]; first compound 0.8 µM)	relative viability ([1]; first compound 2.53 µM)	relative viability ([1]; first compound 8 µM)	relative viability ([2]; first compound 0.08 µM)	relative viability ([2]; first compound 0.253 µM)	relative viability ([2]; first compound 0.8 µM)	relative viability ([2]; first compound 2.53 µM)	relative viability ([2]; first compound 8 µM)	relative viability ([3]; first compound 0.08 µM)	relative viability ([3]; first compound 0.253 µM)	relative viability ([3]; first compound 0.8 µM)	relative viability ([3]; first compound 2.53 µM)	relative viability ([3]; first compound 8 µM)	relative viability ([4]; first compound 0.08 µM)	relative viability ([4]; first compound 0.253 µM)	relative viability ([4]; first compound 0.8 µM)	relative viability ([4]; first compound 2.53 µM)	relative viability ([4]; first compound 8 µM)
HCC-366	0.903	0.889	0.888	0.83	0.85	0.17	0.133	0.131	0.153	0.118	0.303	0.252	0.248	0.157	0.315	–	–	–	–	–
HCC-827	1.05	1.08	1.01	1.02	0.876	0.435	0.457	0.376	0.408	0.396	0.232	0.26	0.156	0.229	0.182	0.442	0.651	0.457	0.723	0.489
HOP-62	1.08	1.01	1.12	1.05	1.17	0.389	0.383	0.364	0.334	0.376	0.505	0.566	0.496	0.693	0.673	0.818	0.933	0.977	0.929	1.05
IA-LM	1.16	1.19	1.3	1.18	1.32	–	–	–	–	–	–	–	–	–	–	–	–	–	–	–
LC-2-ad	0.993	0.881	0.884	0.919	0.969	0.503	0.409	0.415	0.492	0.407	0.842	0.819	0.812	0.829	0.867	1.01	0.894	1.06	0.863	0.973
LCLC-97TM1	0.958	0.821	0.822	0.917	0.975	0.219	0.256	0.224	0.283	0.255	0.312	0.328	0.241	0.281	0.281	0.757	0.849	0.771	0.957	0.834
LCLC-103H	0.746	0.826	0.825	0.841	0.508	0.455	0.524	0.551	0.516	0.509	0.686	0.838	0.794	0.666	0.645	0.948	0.959	1.07	0.926	0.863
NCI-H520	0.799	0.789	0.695	0.712	0.649	0.45	0.373	0.425	0.454	0.386	–	–	–	–	–	0.218	0.197	0.239	0.221	0.236
NCI-H522	–	–	–	–	–	0.544	0.46	0.546	0.587	0.62	0.972	0.871	0.855	0.953	0.736	1.16	1.13	1.12	1.22	0.819
NCI-H661	0.996	0.963	0.957	0.966	0.883	0.374	0.345	0.355	0.319	0.367	–	–	–	–	–	0.922	0.904	0.964	0.865	0.811
NCI-H1299	1.09	1.06	1.14	1.04	1.08	–	–	–	–	–	–	–	–	–	–	–	–	–	–	–
NCI-H1648	–	–	–	–	–	0.419	–	0.572	0.383	0.396	0.638	0.706	–	0.718	0.606	–	–	–	–	–
NCI-H1650	1.17	1.12	1.08	1.05	0.977	0.352	0.498	0.421	0.405	0.343	–	–	–	–	–	0.194	0.202	0.227	0.199	0.186
NCI-H1703	0.334	0.489	0.333	0.261	0.316	–	–	–	–	–	0.128	0.126	0.119	0.133	0.0959	–	–	–	–	–
NCI-H1792	–	–	–	–	–	–	–	–	–	–	0.639	0.658	0.643	0.506	0.71	0.501	0.453	0.386	0.452	0.385
NCI-H2009	1.17	1.22	1.21	1.23	1.11	0.767	0.723	0.721	0.551	0.699	–	–	–	–	–	1.04	0.999	1.11	0.96	1.05
NCI-H2023	0.766	0.731	0.785	0.737	0.602	0.333	0.342	0.291	0.307	0.343	–	–	–	–	–	0.75	0.75	0.769	0.577	0.483
NCI-H2228	0.946	0.904	0.77	0.88	0.708	0.221	0.332	0.265	0.228	0.232	–	–	–	–	–	0.134	0.152	0.142	0.164	0.137
SK-LU-1	0.891	0.881	0.857	0.651	0.581	0.262	0.327	0.33	0.351	0.295	–	–	–	–	–	0.226	0.191	0.21	0.188	0.225
SK-MES-1	0.84	0.975	0.844	0.87	0.901	0.846	0.944	0.892	0.849	0.824	–	–	–	–	–	0.544	0.749	0.678	0.834	0.521
SW 1573	0.919	0.808	0.759	0.867	0.973	0.292	0.172	0.149	0.176	0.152	–	–	–	–	–	0.162	0.269	0.207	0.296	0.183
UMC-11	1.01	1.07	1.06	1.05	0.997	0.202	0.192	0.216	0.183	0.216	–	–	–	–	–	0.982	0.941	1.08	0.974	0.821
